The values below come from US20190202836A1, “SELECTIVE DUAL INHIBITORS OF PI3 DELTA AND GAMMA PROTEIN KINASES” (Rhizen Pharmaceuticals SA, priority 2014, published 2019).

Like-named read-outs stand apart in the source and are kept apart here.

For data set [1] the following is noted: reported at 55th ASH Annual Meeting, 2013; cited from earlier work.
Data set [2] can be described thus: Metabolic stability in mouse liver microsomes. It is filed as in vitro ADME. The following applies: 1 μM test item, 60 minutes, 37° C., NADPH. As for the experimental part: (§1) Metabolic stability studies were conducted on Compounds A, A1, and A2 as well as Example 128 of WO 2012/151525 using mouse, rat, dog, monkey, and human liver microsomes. The protocol for the studies with mouse, rat, and human liver microsomes (all from BD Gentest, USA) is provided below. 0.4 mg protein was preincubated with 2 mM NADPH (cofactor) in phosphate buffer (pH-7.4) for 15 minutes at 37° C. and then added with 1 μM test item and incubated further for 60 minutes in triplicate. The reaction mixture was terminated with methanol containing an internal standard and centrifuged further to analyze the test item remaining in the supernatant by LC-MS/MS. The percent parent compound remaining was calculated in comparison with similar samples terminated at 0 minutes.
(In general: Liver microsomes are vesicles of endoplasmic reticulum, rich in cytochrome P450 enzymes.)

The nature of data set [3]: Metabolic stability in monkey liver microsomes. The format is in vitro ADME. As to the method:
as §1

Data set [4] can be described thus: Metabolic stability in human liver microsomes. The format is in vitro ADME. Particulars: 1 μM test item, 60 minutes, 37° C., NADPH. As for the experimental part:
as §1

In a further data set the target is PI3Kδ (Homo sapiens, UniProt O00329). Nature of the data set: Assay 1: Fluorescent (HTRF) determination of PI3 kinase enzyme activity, PI3Kδ. The format is biochemical. An excerpt: (§2) Phosphoinositide 3 kinases (PI3K) belong to a class of lipid kinases that play a critical role in the regulation of several key cellular processes. The PI3K are capable of phosphorylating the 3-hydroxy position of phosphoinositols thereby generating second messengers involved in downstream signaling events. The homogenous time resolved fluorescence (HTRF) assay allows detection of 3,4,5-triphosphate (PIPS) formed as a result of phosphorylation of phosphotidylinositol 4,5-biphosphate (PIP2) by PI3K isoforms such as α, β, γ or δ.
(§3) PI3K isoform activity for α, β, γ or δ was determined using a PI3K human HTRF™ Assay Kit (Millipore, Billerica, Mass.) with modifications. All incubations were carried out at room temperature. 0.5 μl of 40× inhibitor (in 100% DMSO) or 100% DMSO were added to each well of a 384-well white plate (Greiner Bio-One, Monroe, N.C.) containing 14.5 μl 1× reaction buffer/PIP2 (10 mM MgCl2, 5 mM DTT, 1.38 μM PIP2) mix with or without enzyme, followed by 5 μl/well of 400 μM ATP and incubated for an additional 30 minutes. The reaction was terminated by adding 5 μl/well stop solution (Millipore, Billerica, Mass.). 5 μl of detection mix (Millipore, Billerica, Mass.) was then added to each well and incubated for 6-18 hours in the dark. HRTF ratio was measured on a microplate reader (BMG Labtech., Germany) at an excitation wavelength of 337 nm and emission wavelengths of 665 and 615 nm with an integration time of 400 msec counting delay of 50 msec.
(Time-resolved FRET reads energy transfer from a long-lived donor to a nearby acceptor.)

Data set [5] is described as follows: Metabolic stability in rat liver microsomes. The format is in vitro ADME. Particulars: 1 μM test item, 60 minutes, 37° C., NADPH. As to the method: as §1
The target in another data set is PI3Kγ (Homo sapiens, UniProt P48736). Put plainly: Assay 1: Fluorescent (HTRF) determination of PI3 kinase enzyme activity, PI3Kγ. The format is biochemical.
Description: as §2, §3

The nature of data set [6]: Oral pharmacokinetics in rats. The format is in vivo. The following applies: Rat, 10 mg/kg. As to the method: The oral bioavailability of Compound A1 (free base) was evaluated in rats and mice. The protocol for the pharmacokinetics studies in rat is provided below.
All animals were fasted overnight (12 hours) before dosing and continued till 4.0 hours after administration of test item. Test item formulations were prepared in 1% Tween 80 and 99% media (0.5% Methyl cellulose, 4000cPs, pH 2.2). The blood samples (150 μL from each animal) were collected from the orbital sinus, and placed into a micro centrifuge tube containing disodium EDTA as an anticoagulant. Blood samples were centrifuged immediately with a speed of 1000 g for 10 min at 4° C. and separated plasma samples were frozen at below −80° C. and stored until analysis. The concentrations of test item in all formulations were analyzed by HPLC. The plasma concentrations of test item in all samples were analyzed by LC-MS/MS. Pharmacokinetic parameters (Cmax, AUC0-t, Tmax, and t^1/2) were estimated by using WinNonlin software. Results are provided in Table 3 for Compound A, A1, and Example 128 of WO 2012/151525 in rats and Compound A1 in mice.

A short description of data set [7]: Metabolic stability in dog liver microsomes. It is filed as in vitro ADME.

Sequence of PI3Kγ (P48736 whole entry): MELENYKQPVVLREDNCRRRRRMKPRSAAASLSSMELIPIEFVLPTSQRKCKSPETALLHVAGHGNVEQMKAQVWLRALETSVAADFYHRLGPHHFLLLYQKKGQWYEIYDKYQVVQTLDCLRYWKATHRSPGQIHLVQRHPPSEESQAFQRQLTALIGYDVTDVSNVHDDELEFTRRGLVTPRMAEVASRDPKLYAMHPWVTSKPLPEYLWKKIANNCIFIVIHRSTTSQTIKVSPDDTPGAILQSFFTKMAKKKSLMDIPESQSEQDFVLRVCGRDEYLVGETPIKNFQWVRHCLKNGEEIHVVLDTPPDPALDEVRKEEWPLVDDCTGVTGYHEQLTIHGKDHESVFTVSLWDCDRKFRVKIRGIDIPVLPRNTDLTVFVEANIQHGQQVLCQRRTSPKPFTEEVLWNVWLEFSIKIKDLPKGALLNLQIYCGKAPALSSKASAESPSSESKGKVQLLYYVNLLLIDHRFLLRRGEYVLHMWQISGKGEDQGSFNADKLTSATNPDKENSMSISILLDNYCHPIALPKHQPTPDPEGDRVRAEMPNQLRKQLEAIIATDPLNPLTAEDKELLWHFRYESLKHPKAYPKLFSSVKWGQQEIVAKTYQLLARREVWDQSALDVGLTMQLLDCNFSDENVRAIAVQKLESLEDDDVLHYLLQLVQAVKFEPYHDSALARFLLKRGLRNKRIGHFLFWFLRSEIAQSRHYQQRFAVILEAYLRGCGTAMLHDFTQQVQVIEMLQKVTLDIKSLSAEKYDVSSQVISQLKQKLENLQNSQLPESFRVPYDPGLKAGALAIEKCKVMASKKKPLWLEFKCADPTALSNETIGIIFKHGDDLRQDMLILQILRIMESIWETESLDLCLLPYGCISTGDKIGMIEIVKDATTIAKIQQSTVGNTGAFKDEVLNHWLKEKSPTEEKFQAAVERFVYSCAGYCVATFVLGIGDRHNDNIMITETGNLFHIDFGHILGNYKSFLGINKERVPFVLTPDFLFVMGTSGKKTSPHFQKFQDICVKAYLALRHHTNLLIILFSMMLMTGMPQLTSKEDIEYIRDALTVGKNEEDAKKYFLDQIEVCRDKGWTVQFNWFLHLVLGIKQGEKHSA
Sequence of PI3Kδ (O00329 whole entry, canonical isoform): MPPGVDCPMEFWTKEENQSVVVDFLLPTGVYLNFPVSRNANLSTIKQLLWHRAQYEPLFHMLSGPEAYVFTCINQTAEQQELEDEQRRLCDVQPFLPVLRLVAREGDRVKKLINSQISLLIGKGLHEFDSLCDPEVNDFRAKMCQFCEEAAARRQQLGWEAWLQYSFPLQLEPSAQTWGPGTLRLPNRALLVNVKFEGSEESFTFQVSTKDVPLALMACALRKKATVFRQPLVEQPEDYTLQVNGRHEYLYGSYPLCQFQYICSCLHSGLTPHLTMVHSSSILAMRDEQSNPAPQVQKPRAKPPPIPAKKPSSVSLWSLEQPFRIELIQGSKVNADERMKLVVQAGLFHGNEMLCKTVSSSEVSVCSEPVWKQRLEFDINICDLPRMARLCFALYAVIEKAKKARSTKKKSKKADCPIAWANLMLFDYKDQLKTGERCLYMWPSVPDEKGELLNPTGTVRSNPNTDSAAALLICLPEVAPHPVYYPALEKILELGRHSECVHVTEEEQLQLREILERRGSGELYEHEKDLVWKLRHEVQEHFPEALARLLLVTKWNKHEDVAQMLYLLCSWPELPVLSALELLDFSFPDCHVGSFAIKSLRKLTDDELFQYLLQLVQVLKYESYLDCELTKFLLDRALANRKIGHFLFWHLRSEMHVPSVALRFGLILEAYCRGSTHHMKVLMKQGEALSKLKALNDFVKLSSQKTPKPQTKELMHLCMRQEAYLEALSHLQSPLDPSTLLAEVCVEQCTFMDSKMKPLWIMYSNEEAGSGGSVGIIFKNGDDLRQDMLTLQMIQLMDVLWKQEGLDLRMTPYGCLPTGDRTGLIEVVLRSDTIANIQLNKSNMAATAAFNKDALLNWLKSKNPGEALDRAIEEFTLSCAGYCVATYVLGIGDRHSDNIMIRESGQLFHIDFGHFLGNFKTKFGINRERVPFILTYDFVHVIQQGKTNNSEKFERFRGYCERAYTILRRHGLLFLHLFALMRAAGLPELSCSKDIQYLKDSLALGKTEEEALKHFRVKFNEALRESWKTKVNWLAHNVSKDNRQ
Sequence of PI3Kδ (P27986 whole entry partner, canonical isoform): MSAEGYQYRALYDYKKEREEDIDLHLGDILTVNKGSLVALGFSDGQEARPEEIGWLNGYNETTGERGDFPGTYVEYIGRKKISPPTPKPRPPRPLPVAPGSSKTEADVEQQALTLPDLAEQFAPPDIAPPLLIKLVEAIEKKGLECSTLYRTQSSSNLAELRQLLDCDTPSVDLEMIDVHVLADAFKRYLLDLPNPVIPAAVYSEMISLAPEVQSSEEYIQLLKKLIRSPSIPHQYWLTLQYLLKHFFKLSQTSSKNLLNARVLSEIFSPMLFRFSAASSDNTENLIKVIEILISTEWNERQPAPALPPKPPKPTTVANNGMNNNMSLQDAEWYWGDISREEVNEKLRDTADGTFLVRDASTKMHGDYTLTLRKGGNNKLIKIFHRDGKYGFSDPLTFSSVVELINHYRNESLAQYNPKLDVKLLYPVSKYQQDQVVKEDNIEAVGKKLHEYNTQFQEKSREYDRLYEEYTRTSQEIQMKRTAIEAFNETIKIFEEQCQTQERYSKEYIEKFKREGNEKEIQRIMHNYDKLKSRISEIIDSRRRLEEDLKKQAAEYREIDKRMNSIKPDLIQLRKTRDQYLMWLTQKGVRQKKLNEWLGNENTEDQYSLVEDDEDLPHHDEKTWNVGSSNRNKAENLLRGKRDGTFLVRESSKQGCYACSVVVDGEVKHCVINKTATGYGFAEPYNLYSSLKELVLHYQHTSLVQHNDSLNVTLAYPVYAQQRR

In the case of `C[C@H](Nc1ncnc2[nH]cnc12)c1cc2cccc(Cl)c2c(=O)n1-c1ccccc1` [IPI-45], in [1], the “maximum tolerated dose (MTD)” value is on record as 75 mg BID.
For `COc1ccc(-c2nn(C(C)c3oc4cccc(F)c4c(=O)c3-c3cccc(F)c3)c3ncnc(N)c23)cc1NS(C)(=O)=O` (racemic) [Compound A, (RS)—N-(5-(4-amino-1-(1-(5-fluoro-3-(3-fluorophenyl)-4-oxo-4H-chromen-2-yl)ethyl)-1H-pyrazolo[3,4-d]pyrimidin-3-yl)-2-methoxyphenyl)methanesulfonamide], the “Metabolic stability in liver microsomes (percent parent compound remaining), Mouse” value in data set [2] stood at 96%. In addition, in data set [3], the “Metabolic stability in liver microsomes (percent parent compound remaining), Monkey” value was 42.3%. The “Metabolic stability in liver microsomes (percent parent compound remaining), Human” value in data set [4] was determined as 69.7%. Also, at PI3Kδ, the IC50 (usually the midpoint of a concentration-inhibition curve) was determined as 103 nM. For the same molecule, in data set [5], the “Metabolic stability in liver microsomes (percent parent compound remaining), Rat” value was 91%. For the same molecule, on PI3Kγ (read-out: IC50 (nM) PI3Kγ), the half-inhibitory concentration (IC50) was determined as 82.9 nM. In [6], the “fold increase in AUC0-t as compared to Example 128 of WO 2012/151525” value is reported as approximately 4 fold, the “fold increase in Cmax as compared to Example 128 of WO 2012/151525” value was approximately 1.5 fold and the “fold increase in t1/2 as compared to Example 128 of WO 2012/151525” value was approximately 2.8 fold. In [6] (plasma), the AUC(0-t) (in general, exposure summed from dosing to a finite time, without extrapolation to infinity) turned out to be 7.95 µM·h; the Cmax – broadly, the maximum level reached in the sampled fluid or tissue – stood at 1020 nM; the Tmax (commonly the time from dosing to the highest level) stood at 2.67 h; the half-life (usually how long it takes for the measured level to halve) was 4.52 h. Also, the “Metabolic stability in liver microsomes (percent parent compound remaining), Dog” value in data set [7] turned out to be 64.3%.
For the molecule `COc1ccc(-c2nn([C@H](C)c3oc4cccc(F)c4c(=O)c3-c3cccc(F)c3)c3ncnc(N)c23)cc1NS(C)(=O)=O` [Compound A2, (R)—N-(5-(4-amino-1-(1-(5-fluoro-3-(3-fluorophenyl)-4-oxo-4H-chromen-2-yl)ethyl)-1H-pyrazolo[3,4-d]pyrimidin-3-yl)-2-methoxyphenyl)methanesulfonamide], the “Metabolic stability in liver microsomes (percent parent compound remaining), Mouse” value in data set [2] stood at 68.9%. Moreover, in data set [3], the “Metabolic stability in liver microsomes (percent parent compound remaining), Monkey” value turned out to be 1.9%. Also, the “Metabolic stability in liver microsomes (percent parent compound remaining), Human” value in [4] is reported as 60.2%. Moreover, the results for the IC50 against PI3Kδ, on PI3Kγ (read-out: IC50 (nM) PI3Kγ) and at PI3Kγ (read-out: IC50 Pi3Kγ (cell prints μM)) were 92.9 nM, more than 10000 nM and more than 10000 nM, respectively. Besides, in [5], the “Metabolic stability in liver microsomes (percent parent compound remaining), Rat” value turned out to be 79.5%. The “Metabolic stability in liver microsomes (percent parent compound remaining), Dog” value in [7] stood at 52.3%.
